Laboratory results published in US7968570B2, “Isoindolone compounds and their use as metabotropic glutamate receptor potentiators” (AstraZeneca AB, priority 2004, dated 2011).

These compounds were tested against T1, human mGluR2 receptor (Homo sapiens, UniProt Q14416) (assay: [35S]-GTPγS binding assay of mGluR2 receptor activation). Conditions: not given.
T1 construct: expressed in transfected cells
Format: biochemical
Outline: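 CHO membranes stably expressing human mGluR2 (30 μg) preincubated 15 min at room temperature with compound (3 nM–300 μM), then 1 μM glutamate, 30 μM GDP, 0.1 nM [35S]-GTPγS, 30 min at 30° C in HEPES/NaCl/MgCl2. Filtration counting; EC50 and Emax relative to maximal glutamate effect by non-linear regression.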

T1 sequence (Q14416 19-872): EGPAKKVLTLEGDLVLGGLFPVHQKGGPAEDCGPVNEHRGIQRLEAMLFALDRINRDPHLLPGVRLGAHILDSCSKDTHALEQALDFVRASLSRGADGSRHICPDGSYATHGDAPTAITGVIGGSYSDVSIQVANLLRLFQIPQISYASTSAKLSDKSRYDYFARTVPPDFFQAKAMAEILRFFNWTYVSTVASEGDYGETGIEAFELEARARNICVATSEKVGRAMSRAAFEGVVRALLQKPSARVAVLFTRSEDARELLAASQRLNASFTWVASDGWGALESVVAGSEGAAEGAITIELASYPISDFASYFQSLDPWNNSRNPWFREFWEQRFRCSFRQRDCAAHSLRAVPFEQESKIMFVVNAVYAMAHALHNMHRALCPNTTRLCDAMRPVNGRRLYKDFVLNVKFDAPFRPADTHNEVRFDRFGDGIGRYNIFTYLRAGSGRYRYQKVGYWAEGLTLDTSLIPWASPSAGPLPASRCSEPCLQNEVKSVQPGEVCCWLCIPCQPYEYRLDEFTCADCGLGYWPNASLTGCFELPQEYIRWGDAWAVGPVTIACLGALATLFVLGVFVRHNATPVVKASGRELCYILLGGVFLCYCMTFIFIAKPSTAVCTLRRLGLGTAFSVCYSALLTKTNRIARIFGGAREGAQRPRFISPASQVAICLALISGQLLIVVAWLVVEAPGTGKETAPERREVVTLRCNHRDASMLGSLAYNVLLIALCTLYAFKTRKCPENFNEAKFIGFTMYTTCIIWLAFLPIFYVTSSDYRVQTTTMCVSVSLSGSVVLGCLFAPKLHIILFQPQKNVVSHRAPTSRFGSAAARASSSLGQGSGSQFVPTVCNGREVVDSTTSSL

Compound	EC50 [nM]
Cc1cc(CC2CCN(C3CCCC3)CC2)cc2c1C(=O)N(Cc1ccc(OC(F)(F)F)cc1)C2 [Example 173, 5-(1-cyclopentyl-piperidin-4-ylmethyl)-7-methyl-2-(4-trifluorometh-oxy-benzyl)-2,3-dihydro-isoindol-1-one]	820

Same assay, conditions: membranes from CHO cells stably expressing human mGluR2; 1 μM glutamate

Compound	EC50 [nM]
Cc1cc(CNCc2ccccn2)cc2c1C(=O)N(Cc1ccc(OC(F)(F)F)cc1)C2 [Example 40, 7-Methyl-5-{[(pyridine-2-ylmethyl)-amino]-methyl}-2-(4-trifluoromethoxy-benzyl)-2,3-dihydro-isoindol-1-one]	1450
Cc1cc(N2CCC(N(C)C)C2)cc2c1C(=O)N(Cc1ccc(OC(F)(F)F)cc1)C2 (stereo not shown) [Example 115, 5-(3-dimethylamino-pyrollidin-1-yl)-7-methyl-2-(4-trifluoromethoxy-benzyl)-2,3-dihydroisoindol-1-one]	300
CCN1CCN(c2cc3c(c(OC)c2)C(=O)N(Cc2ccc(OC(F)(F)F)cc2)C3)CC1 [Example 127, 5-(4-Ethylpiperazin-1-yl)-7-methoxy-2-(4-trifluoromethoxy-benzyl)-2,3-dihydroisoindol-1-one]	4680
COc1cc(N2CCN3CCCC3C2)cc2c1C(=O)N(Cc1ccc(OC(F)(F)F)cc1)C2 (stereo not shown) [Example 124, 5- (Hexahydropyrrolo [1,2-a]pyrazin-2-yl)-7-methoxy-2-(4-trifluoromethoxy-benzyl)-2,3-dihydroisoindol-1-one]	1910
CCCN1CCN(c2ccc3c(c2)CN(Cc2ccc(OC(F)(F)F)cc2)C3=O)CC1 [Example 146, 5-(4-Propyl-piperazin-1-yl)-2-(4-tri-fluoromethoxy-benzyl)-2,3-dihydro-isoindol-1-one]	4420
Cc1cc(N2CCN(CCc3ccncc3)CC2)cc2c1C(=O)N(Cc1ccc(OC(F)(F)F)cc1)C2 [Example 137]	100
COc1cc(N2CCC(N(C)C)C2)cc2c1C(=O)N(Cc1ccc(OC(F)(F)F)cc1)C2 (stereo not shown) [Example 126, 5-(3- Dimethylaminopyrrolidin-1-yl)-7-methoxy-2-(4-trifluoromethoxy-benzyl)-2,3-dihydroisoindol-1-one]	2520
Cc1ccc(CN2Cc3cc(-c4cccnc4)ccc3C2=O)cc1 [Example 94, 2-(4-Methylbenzyl)-5-pyridin-3-yl-2,3-dihydroisondol-1-one]	2760
Cc1cc(CNCCc2ccccc2)cc2c1C(=O)N(Cc1ccc(OC(F)(F)F)cc1)C2 [Example 46, 7-Methyl-5-(phenethylamino-methyl)-2-(4-trifluoromethoxy-benzyl)-2,3-dihydro-isoindol-1-one]	630
